These are literature values, as cited in paper PMC12144996 (Acta Pharmaceutica Sinica. B, 2025).

This data set deals with SARS-CoV-2 variants of concern (VOCs). The note with it: cited from earlier work.

Regarding `CC(C)C(=O)OC[C@H]1O[C@@](C#N)(c2ccc3c(N)ncnn23)[C@H](O)[C@@H]1O` [ATV006], the “Antiviral activity against SARS-CoV-2 variants of concern” value is reported as “potent antiviral activity”.
